Reference: paper PMC6090556 (Neuron, 2018)
Like-named read-outs stand apart in the source and are kept apart here. Marks after values point to notes of the source that are not given here. Values belong to the compound of their own block, whether it stands above or below them.

What was measured:
[1] = test system: NMDARs in cultured cortical neurons transfected with GluN2C and GFP; type: cell-based, rat
[2] = molecular target: NMDARs in cerebellar granule cells, Grin2C−/− mice (Mus musculus, UniProt P35436+P35438); type: cell-based; details: 50 μM PYD-106, Grin2C−/− slices, n=8 animals
[3] = molecular target: NMDARs in cerebellar granule cells, wild type mice (Mus musculus, UniProt P35436+P35438+Q01098); type: cell-based
Sequence of NMDARs in cerebellar granule cells, wild type mice (P35436 23-1464, other chains not shown): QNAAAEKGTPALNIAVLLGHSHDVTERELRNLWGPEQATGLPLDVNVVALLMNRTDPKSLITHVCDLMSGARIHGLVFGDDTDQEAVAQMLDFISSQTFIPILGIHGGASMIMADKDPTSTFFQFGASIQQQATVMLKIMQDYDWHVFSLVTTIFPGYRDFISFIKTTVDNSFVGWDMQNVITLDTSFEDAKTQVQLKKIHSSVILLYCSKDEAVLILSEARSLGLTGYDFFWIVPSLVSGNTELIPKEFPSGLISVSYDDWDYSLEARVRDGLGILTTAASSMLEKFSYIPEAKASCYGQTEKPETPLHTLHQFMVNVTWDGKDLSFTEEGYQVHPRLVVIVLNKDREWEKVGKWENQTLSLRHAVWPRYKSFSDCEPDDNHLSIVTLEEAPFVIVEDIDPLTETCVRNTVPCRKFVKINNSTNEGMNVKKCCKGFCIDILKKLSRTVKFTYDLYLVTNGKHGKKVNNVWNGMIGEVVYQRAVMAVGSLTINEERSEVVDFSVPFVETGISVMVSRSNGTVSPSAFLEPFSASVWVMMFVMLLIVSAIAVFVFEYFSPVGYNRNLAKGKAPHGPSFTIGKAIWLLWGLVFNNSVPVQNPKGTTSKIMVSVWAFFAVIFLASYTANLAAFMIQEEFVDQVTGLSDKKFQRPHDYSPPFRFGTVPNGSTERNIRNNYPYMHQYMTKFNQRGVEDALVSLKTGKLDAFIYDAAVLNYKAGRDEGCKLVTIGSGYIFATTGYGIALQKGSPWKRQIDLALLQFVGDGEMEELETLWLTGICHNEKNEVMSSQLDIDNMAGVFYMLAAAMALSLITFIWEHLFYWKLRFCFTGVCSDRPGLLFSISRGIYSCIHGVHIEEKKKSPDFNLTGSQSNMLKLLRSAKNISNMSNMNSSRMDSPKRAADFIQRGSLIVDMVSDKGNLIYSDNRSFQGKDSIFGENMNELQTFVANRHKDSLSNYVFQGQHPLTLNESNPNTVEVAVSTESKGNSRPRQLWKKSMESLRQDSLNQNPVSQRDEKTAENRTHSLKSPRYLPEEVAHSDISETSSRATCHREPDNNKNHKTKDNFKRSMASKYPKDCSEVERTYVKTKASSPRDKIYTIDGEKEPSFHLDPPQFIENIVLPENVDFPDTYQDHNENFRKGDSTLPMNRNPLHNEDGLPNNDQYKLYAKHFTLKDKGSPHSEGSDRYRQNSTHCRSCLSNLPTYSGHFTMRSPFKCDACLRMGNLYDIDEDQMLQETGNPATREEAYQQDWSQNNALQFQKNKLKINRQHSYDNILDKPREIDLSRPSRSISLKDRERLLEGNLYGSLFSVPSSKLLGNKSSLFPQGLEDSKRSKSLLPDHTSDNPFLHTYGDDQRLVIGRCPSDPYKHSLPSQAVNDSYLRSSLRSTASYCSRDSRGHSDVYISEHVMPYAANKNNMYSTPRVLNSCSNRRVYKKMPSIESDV
Sequence of NMDARs in cerebellar granule cells, wild type mice (Q01098 20-1239, other chains not shown): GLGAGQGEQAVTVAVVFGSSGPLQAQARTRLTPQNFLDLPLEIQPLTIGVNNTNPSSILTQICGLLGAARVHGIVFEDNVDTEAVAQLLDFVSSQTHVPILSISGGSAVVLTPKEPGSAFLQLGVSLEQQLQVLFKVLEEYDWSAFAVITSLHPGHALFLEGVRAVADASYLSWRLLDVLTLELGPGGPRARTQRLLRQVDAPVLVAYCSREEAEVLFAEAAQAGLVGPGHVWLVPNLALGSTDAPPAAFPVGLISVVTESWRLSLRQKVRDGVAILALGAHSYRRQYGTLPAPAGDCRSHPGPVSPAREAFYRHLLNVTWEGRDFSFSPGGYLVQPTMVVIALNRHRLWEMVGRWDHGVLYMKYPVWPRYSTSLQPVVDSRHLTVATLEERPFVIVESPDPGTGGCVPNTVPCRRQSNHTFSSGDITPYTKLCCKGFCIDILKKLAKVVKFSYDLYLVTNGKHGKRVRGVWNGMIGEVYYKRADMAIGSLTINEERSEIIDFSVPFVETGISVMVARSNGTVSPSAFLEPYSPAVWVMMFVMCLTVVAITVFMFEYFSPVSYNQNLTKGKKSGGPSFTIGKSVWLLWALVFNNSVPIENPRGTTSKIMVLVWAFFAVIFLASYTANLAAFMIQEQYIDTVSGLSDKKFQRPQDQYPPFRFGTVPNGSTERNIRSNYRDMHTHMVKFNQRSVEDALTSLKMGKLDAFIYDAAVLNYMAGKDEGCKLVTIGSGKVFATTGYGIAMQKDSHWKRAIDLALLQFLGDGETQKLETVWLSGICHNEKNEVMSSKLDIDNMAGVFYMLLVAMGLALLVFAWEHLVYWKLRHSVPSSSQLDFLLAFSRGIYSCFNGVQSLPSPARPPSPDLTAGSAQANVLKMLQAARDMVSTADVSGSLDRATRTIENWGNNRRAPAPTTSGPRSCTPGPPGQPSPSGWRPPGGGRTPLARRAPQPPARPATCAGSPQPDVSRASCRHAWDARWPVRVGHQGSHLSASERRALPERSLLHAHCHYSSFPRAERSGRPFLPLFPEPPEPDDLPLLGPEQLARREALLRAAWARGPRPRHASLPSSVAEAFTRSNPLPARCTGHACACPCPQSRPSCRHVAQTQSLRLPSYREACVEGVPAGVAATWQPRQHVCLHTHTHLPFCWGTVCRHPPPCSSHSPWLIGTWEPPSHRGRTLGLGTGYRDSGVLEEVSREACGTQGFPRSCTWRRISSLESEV

[4] = test system: GluN1/GluN2B/GluN2C receptors; assay: Two-electrode voltage-clamp recordings in Xenopus oocytes; type: cell-based, rat; details: Figure S1
[5] = molecular target: NMDARs in cerebellar granule cells, Grin2A−/− mice (Mus musculus, UniProt P35438+Q01098); type: cell-based; details: 50 μM PYD-106, Grin2A−/− slices, n=8 animals
Sequence of NMDARs in cerebellar granule cells, Grin2A−/− mice (Q01098 20-1239, other chains not shown): as above

[6] = test system: NMDARs in cultured cortical neurons transfected with GFP alone (control); type: cell-based, rat
[7] = molecular target: GluN1/GluN2AC1/GluN2CC2(NK) (Rattus norvegicus, UniProt P35439+Q00959+Q00961, N612K); assay: Two-electrode voltage-clamp recordings in Xenopus oocytes; type: cell-based; details: for GluN2AC1/GluN2CC2(NK) fitted response in saturating Zn2+ as percent of control: mean ± SEM; for IC50: read-out: GluN2AC1/GluN2CC2(NK) EC50 (95% CI), IC50 in text, Zn2+ inhibition
Sequence of GluN1/GluN2AC1/GluN2CC2(NK) (Q00961 20-836 N612K, other chains not shown): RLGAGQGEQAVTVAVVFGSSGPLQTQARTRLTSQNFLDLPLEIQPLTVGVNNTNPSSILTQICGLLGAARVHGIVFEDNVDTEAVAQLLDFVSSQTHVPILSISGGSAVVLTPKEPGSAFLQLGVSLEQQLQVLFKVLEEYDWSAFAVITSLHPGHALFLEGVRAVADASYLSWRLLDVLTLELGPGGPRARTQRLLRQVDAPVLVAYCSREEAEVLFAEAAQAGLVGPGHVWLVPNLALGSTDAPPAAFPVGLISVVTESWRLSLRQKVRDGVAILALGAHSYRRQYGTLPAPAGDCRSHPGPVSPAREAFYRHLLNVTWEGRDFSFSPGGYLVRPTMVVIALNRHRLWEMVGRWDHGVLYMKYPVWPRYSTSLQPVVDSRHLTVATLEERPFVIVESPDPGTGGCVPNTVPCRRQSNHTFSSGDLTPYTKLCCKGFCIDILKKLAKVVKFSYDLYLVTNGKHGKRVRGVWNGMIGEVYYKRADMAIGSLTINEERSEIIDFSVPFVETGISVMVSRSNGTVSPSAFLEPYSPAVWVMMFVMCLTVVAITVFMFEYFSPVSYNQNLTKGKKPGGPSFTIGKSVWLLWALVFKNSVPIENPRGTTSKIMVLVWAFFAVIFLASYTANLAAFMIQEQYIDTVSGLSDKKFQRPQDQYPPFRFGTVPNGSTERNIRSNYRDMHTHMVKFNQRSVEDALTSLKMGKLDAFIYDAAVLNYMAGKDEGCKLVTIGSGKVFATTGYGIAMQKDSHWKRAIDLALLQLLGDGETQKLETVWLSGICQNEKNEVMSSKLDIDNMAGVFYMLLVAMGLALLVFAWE
Sequence of GluN1/GluN2AC1/GluN2CC2(NK) (Q00959 23-1464, other chains not shown): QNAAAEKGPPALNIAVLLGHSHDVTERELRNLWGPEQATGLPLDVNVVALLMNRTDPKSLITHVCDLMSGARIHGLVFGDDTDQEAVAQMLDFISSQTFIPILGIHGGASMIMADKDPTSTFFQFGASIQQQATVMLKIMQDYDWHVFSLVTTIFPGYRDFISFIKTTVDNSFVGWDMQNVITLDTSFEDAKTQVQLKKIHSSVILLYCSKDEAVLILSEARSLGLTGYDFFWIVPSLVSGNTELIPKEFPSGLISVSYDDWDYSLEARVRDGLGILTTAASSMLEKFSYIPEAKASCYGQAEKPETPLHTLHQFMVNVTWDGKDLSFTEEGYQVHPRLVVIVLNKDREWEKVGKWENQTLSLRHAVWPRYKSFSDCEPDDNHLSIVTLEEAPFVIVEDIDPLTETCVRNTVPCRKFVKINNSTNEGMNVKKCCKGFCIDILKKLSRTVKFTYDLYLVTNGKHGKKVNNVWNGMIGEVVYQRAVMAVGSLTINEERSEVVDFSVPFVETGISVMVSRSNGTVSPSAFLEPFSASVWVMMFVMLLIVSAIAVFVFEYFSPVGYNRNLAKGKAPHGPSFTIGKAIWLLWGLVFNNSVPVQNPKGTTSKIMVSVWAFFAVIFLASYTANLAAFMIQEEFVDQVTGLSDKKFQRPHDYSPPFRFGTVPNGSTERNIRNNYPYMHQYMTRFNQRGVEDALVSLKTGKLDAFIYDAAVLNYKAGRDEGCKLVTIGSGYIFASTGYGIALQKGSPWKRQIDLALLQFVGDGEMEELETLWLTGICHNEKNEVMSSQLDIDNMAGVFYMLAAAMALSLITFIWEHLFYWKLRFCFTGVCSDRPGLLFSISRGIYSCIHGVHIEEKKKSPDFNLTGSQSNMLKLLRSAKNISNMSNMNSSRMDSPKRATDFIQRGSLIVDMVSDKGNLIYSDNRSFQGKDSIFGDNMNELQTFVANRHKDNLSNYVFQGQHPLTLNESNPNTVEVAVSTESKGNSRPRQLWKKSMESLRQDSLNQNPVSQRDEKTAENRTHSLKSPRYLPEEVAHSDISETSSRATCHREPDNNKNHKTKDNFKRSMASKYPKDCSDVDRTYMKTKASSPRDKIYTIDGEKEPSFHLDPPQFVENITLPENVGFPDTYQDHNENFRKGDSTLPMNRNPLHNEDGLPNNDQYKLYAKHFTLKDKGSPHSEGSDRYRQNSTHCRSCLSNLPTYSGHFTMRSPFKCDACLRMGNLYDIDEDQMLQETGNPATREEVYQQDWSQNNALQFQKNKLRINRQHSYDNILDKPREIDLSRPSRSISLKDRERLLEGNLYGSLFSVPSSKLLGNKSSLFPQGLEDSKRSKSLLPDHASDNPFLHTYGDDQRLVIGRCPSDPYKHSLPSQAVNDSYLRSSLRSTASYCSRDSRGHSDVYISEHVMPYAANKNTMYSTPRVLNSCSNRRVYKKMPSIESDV

GluN1/GluN2AC1/GluN2AC2 = GluN1/GluN2AC1/GluN2AC2 (Rattus norvegicus, UniProt P35439+Q00959); assay: as above
GluN1/GluN2A = GluN1/GluN2A (Rattus norvegicus, UniProt P35439+Q00959); details: 5 ms pulse of 1 mM glutamate, continuous 100 μM glycine, n=6
GluN1/GluN2C = GluN1/GluN2C (Rattus norvegicus, UniProt P35439+Q00961); details: 5 ms pulse of 1 mM glutamate, continuous 100 μM glycine, n=8
[8] = test system: NMDARs in cultured cortical neurons; type: cell-based, rat; details: 400 μM DL-APV
[9] = molecular target: NMDARs in cultured cortical neurons (Rattus norvegicus, UniProt P35439+Q00960); type: cell-based; details: spermine potentiation of native GluN2B-mediated current responses, n=3

SMILES: [Zn+2] [Zn^2+]
- GluN2AC1/GluN2CC2(NK) fitted response in saturating Zn2+ as percent of control ([7]; pH 6.8, 0.1 mM Mg2+): 27±1.6 ^c %
- GluN2AC1/GluN2CC2(NK) fitted response in saturating Zn2+ as percent of control ([7]; pH 7.3, 0.1 mM Mg2+): 57±0.4 ^c %
- IC50 ([7]; pH 6.8, 0.1 mM Mg2+): 19 nM
- IC50 ([7]; pH 7.3, 0.1 mM Mg2+): 45 nM
- GluN2AC1/GluN2AC2 fitted response in saturating Zn2+ as percent of control (GluN1/GluN2AC1/GluN2AC2; pH 6.8, mean ± SEM): 21±1.7 ^c %
- GluN2AC1/GluN2AC2 fitted response in saturating Zn2+ as percent of control (GluN1/GluN2AC1/GluN2AC2; pH 7.3, mean ± SEM): 57±2.0 ^c %

SMILES: N[C@@H](CCC(=O)O)C(=O)O [Glutamate]
- time constant for glutamate deactivation (τ) (GluN1/GluN2A): 81 ± 8 ms
- time constant for glutamate deactivation (τ) (GluN1/GluN2C): 477 ± 40 ms

SMILES: NC(CCCP(=O)(O)O)C(=O)O (racemic) [DL-APV, D,L-2-amino-5-phosphonovalerate]
- current response, % of control [8]: 3.4±0.7%

Second part, led by results:

- granule cell response, % of control [2]: 90±7%
- granule cell response to pressure-applied NMDA, % of DCS alone ([3]; 50 μM PYD-106, continuous 30 μM DCS, wild type mice, n=8 animals): 84±3.8%
- effect on NMDA responses with glycine as the co-agonist ([3]; wild type granule cells, n=3 animals, data not shown): no effect
- sensitivity to PYD-106 [4]: insensitive
- granule cell response to pressure-applied NMDA and glycine, % of control [5]: 164±17%
SMILES: COC(=O)c1ccc(C2C(C(C)=O)=C(O)C(=O)N2CCc2c(C)[nH]c3ccccc23)cc1 (stereo not shown) [PYD-106]
- NMDAR current response in the presence of ifenprodil, % of baseline ([1]; 50 μM PYD-106, 3 μM ifenprodil, GluN2C-transfected neurons, n=5): 72±6%
- NMDAR current response, % of control ([1]; 50 μM PYD-106, GluN2C-transfected neurons, n=5): 89±1.6%
- NMDAR current response, % of control ([6]; 50 μM PYD-106, GFP control neurons, n=5): 83±0.6%

- granule cell response to pressure-applied NMDA, % of DCS ([3]; 20 μM CIQ, 30 μM DCS, wild type mice, n=6 animals): 141±6.7%
SMILES: COc1ccc(OCC2c3cc(OC)c(OC)cc3CCN2C(=O)c2cccc(Cl)c2)cc1 (stereo not shown) [CIQ]
- NMDAR-mediated current, % of control ([1]; 20 μM CIQ, GluN2C-transfected neurons, n=5): 145±9.4%
- NMDAR current response in the presence of ifenprodil, % of baseline ([1]; CIQ, 3 μM ifenprodil, GluN2C-transfected neurons, n=4): 131±5%
- NMDAR-mediated current, % of baseline ([6]; 20 μM CIQ, control (GFP) cortical neurons, n=4): 96±4.6%

- NMDAR current, % of baseline responses [9]: 142±7.2%
SMILES: NCCCNCCCCNCCCN [Spermine]
